“Also recorded” adds a separate entry of the source. Read-outs that look alike come from different tables or passages of the source.
Experiments:
[1] = test system: MCF7 cells; experiment: Combination therapy Hsp70 and Hsp90, MCF7 growth; assay type: cell-based; details: with 1 nM rapamycin or 1 nM 17-AAG
Description: The cells were then treated with the Hsp70 inhibitor JG-83 or JG-84 alone or in combination with the Hsp90 inhibitor 1 nM rapamycin or 1 nM 17-AAG.

[2] = test system: HeLa; experiment: Cancer activity screen (MTT cell survival), HeLa; assay type: cell-based; details: Homo sapiens
[3] = test system: MDA-MB-231; experiment: Cancer activity screen (MTT cell survival), MDA-MB-231; assay type: cell-based; details: Homo sapiens
[4] = test system: MCF-7; experiment: Cancer activity screen (MTT cell survival), MCF-7; assay type: cell-based; details: for IC50: Homo sapiens, MCF7; for anti-cancer activity: especially in MCF7 cells
[5] = test system: MCF-10A; experiment: Cancer activity screen (MTT cell survival), MCF-10A; assay type: cell-based; details: Homo sapiens
[6] = Liver microsome stability; assay type: in vitro ADME; details: human liver microsomes
[7] = Initial pharmacokinetics and biodistribution in CD1 mice; assay type: in vivo, mouse; details: i.v., YM-01 20 mg/kg saline, YM-08 10 mg/kg 10% DMSO/saline
Description: (A) Initial pharmacokinetics and biodistribution of YM-01 and YM-08. Compounds were suspended in buffered saline (YM-01) or 10% DMSO/saline (YM-08) and injected at 20 and 10 mg/kg, respectively. YM-08 was not soluble in saline or 10% DMSO/saline at 20 mg/kg. The levels of YM-08 in the brain at 1 hr after injection could not be accurately determined because its value was outside the calibration curve. […] Results are average from data acquired from three female mice. (C) YM-08 maintains a B/P ratio of nearly 0.25 for 18 hrs.
The initial pharmacokinetics (PK) of YM-01 and YM-08 were tested in CD1 mice. […] After a single 6.6 mg/kg dose delivered i.v., the peak brain concentration of YM-08 was 4 μg/g (FIG. 7B) and the ratio in the brain:plasma (B/P) ratio was approximately 0.25 for 18 hrs (FIG. 7C). […] It is not yet clear how much tau levels need to be reduced to achieve therapeutic effects in disease models, but the area-under-the-curve (AUCinf) for YM-08 in the brain was 0.26 μg·hr/g and the AUCinf in plasma was 13.6 μg·hr/mL.

[8] = molecular target: T1, human Hsc70 (HSPA8) (Homo sapiens, UniProt P11142); experiment: ELISA competitive binding assay (biotinylated MKT-077 displacement); details: for IC50: competitive ELISA, biotin labeled MKT-077 1 μM
T1 construct: made in house
T1 sequence (P11142 whole entry): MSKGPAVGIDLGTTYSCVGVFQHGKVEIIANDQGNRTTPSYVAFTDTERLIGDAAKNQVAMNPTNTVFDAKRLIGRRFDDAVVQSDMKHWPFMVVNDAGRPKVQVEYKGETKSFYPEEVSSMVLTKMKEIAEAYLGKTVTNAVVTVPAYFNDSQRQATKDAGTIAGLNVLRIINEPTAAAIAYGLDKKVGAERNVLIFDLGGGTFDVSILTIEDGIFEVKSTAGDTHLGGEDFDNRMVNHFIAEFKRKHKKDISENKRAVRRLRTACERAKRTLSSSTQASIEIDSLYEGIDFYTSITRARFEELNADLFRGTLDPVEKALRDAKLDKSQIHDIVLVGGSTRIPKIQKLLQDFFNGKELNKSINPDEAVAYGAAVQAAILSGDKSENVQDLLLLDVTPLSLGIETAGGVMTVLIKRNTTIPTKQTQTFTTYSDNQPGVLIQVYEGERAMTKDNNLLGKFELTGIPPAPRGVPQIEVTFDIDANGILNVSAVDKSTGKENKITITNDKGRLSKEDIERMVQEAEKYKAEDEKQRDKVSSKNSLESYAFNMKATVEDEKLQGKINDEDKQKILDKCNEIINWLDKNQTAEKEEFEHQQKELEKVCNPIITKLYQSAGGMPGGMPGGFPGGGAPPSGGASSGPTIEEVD
Description: Binding of MKT-077 analogs to immobilized Hsp70 was evaluated using a competitive ELISA. In this established assay, a biotinylated version of MKT-077 is bound to immobilized human Hsc70 (HSPA8) and potential competitors are tested for their ability to block the interaction.
A sample of Hsc70 (50 μL; 0.06 mg/mL) was immobilized in clear flat-bottom 96-well plate in MES buffer (50 mM 2-(N-morpholino)ethanesulfonic acid, pH 5.2) at 37° C. overnight. After discarding the excess protein solution, each well was washed three times with 150 μL TBS-T buffer (25 mM Tris, 140 mM NaCl, 2.7 mM KCl, 0.01% Tween-20, pH 7.4). Then, 1 μL of compound (1% DMSO) was diluted into 24 μL of binding buffer (100 mM Tris, 20 mM KCl, 6 mM MgCl2, 0.01% Triton-X100) and incubated at room temperature for 30 min. Biotin labeled MKT-077 (final concentration 1 μM; 25 μL) was subsequently added into each well and the mixture was incubated at room temperature for another 3 hrs. The wells were washed with 150 μL TBS-T buffer three times prior to blocking with 100 μL 3% bovine serum albumin (BSA) in TBS-T buffer for 5 min at room temperature. After the removal of the BSA solution, 50 μL of HRP-streptavidin (Pierce Biotechnology, 1:50000 TBS-T dilution) solution was added and the plates were incubated at room temperature for 1 hr. The HRP-streptavidin solution was removed and wells were washed three times with 150 μL TBS-T. […] substrate (Cell Signaling Technology 100 μL) was added into each well and incubated at room temperature until a visible blue color was shown in wells (about 20 min). 1 M HCl stop solution was then added into each well to yield a yellow solution and the absorbance at 450 nm was recorded on SpectraMax M5 (Molecular Devices).

[9] = molecular target: prokaryotic Hsp70 (DnaK) binding to denatured luciferase (Escherichia coli, UniProt P0A6Y8); experiment: Luciferase binding assay; assay type: biochemical; details: 50 μM
Chain of prokaryotic Hsp70 (DnaK) binding to denatured luciferase (P0A6Y8 whole entry): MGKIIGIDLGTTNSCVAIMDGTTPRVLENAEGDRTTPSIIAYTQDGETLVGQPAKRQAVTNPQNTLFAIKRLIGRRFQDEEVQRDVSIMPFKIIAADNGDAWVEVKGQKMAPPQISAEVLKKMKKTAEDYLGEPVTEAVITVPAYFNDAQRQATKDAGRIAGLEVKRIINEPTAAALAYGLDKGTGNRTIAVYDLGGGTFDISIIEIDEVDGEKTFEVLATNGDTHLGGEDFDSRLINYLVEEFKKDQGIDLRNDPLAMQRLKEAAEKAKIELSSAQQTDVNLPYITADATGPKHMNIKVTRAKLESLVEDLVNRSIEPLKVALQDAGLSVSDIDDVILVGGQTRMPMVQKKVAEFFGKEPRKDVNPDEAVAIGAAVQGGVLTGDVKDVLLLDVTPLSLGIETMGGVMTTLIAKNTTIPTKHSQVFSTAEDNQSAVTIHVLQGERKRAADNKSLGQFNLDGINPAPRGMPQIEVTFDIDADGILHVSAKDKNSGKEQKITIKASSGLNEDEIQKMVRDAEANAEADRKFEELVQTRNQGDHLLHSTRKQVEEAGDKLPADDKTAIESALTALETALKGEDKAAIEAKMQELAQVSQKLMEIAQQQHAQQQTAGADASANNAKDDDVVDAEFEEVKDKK
Description: Next, the effect of chaperone functions by binding of YM-08 to Hsp70 was investigated. […] This profile is shared with other allosteric Hsp70 inhibitors. As another test of chaperone function, the effects of the compounds on the binding of Hsp70 to a misfolded protein were measured. In previous work, MKT-077 stabilized the interaction between prokaryotic Hsp70 (DnaK) and denatured luciferase. Briefly, this assay involves immobilizing unfolded luciferase in microtiter plates and measuring binding to DnaK. […] To explore whether YM-08 might also enhance binding of Hsp70 to a more physiologically relevant substrate, binding of tau to immobilized human Hsc70 was measured.
Binding of prokaryotic Hsp70 (DnaK) to denatured luciferase was measured as previously described, in e.g., Miyata, et al., J. Biomol. Screen, 15:1211-1219 (2010). Briefly, firefly luciferase (0.2 mg/mL) was proteolyzed with trypsin and immobilized in 96-well microtiter plates. After washing, the binding of luciferase to DnaK (500 nM) was measured using an anti-DnaK antibody and HRP secondary antibody. A similar strategy was used to monitor binding of human Hsc70 to tau, as previously described in Thompson, et al., ACS Chem. Biol., 7:1677-1686 (2012).

[10] = test system: human 4R0N tau in HeLaC3 cells; experiment: Tau levels in HeLaC3 cells by Western blot; assay type: cell-based
Description: To determine whether YM-08 might also accelerated tau degradation, HeLaC3 cells, which stably over-express human 4R0N tau, were treated with compound. After 24 hours, the levels of phosphorylated (p396/404) tau and total tau were measured by Western blot. […] This cellular activity is not as dramatic as that of MKT-077, which reduced tau levels by >80% at 30 μM (FIG. 4D); however, reducing tau by only about 50% is predicted to provide benefits in some AD models.

[11] = test system: MDA-MB-231 cells; experiment: Combination cell viability by MTT, MDA-MB-231; assay type: cell-based; details: for combination index CI50 / combination index CI75 / combination index CI90 / combination index CI95: 24 hrs
Description: To further test if an Hsp70 inhibitor would have synergistic activity with inhibitors of Hsp90 and the proteasome, MDA-MB-231 cells were treated for 24 hrs with combinations of an HSP70 inhibitor and an HSP90 inhibitor and measured cell viability by MTT assays. […] JG98 was also synergistic at ratios of JG98:17DMAG of 1:1 and at ratios of JG98:bortezomib at 100:1.

[12] = test system: MEF (C57BL/6); experiment: Cell survival, MEF; assay type: cell-based; details: Mus musculus; read-out: IC50/μM MEF (C57BL/6)
[13] = read-out: IC50, inhibition of biotinylated MKT-077 binding to immobilized Hsc70

Row | Compound | IC50 [2] | IC50 [3] | IC50 [4] | IC50 [5] | also measured
1 | CCn1c(=O)/c(=C2\Sc3cccc(Cl)c3N2C)s/c1=C\c1scc[n+]1Cc1ccccc1 [JG-84] |  |  |  |  | IC50 in combination versus Hsp70 inhibitor alone [1]: decreased IC50 concentrations
2 | CN1/C(=c2\s/c(=C\c3cccc[n+]3Cc3ccccc3)n(Cc3ccccc3)c2=O)Sc2ccccc21 | 5.89 ± 0.87 µM | 1.8 ± 0.34 µM | 2.15 ± 0.68 µM | 1.34 ± 0.16 µM | 
3 | CN1/C(=c2\s/c(=C\c3cc(Cl)cc[n+]3C)n(Cc3ccccc3)c2=O)Sc2ccccc21 |  | 2.83 ± 0.26 µM | 2.81 ± 1.01 µM | 1.12 ± 0.04 µM | 
4 | CCn1c(=O)/c(=C2\Sc3ccccc3N2C)s/c1=C\c1cccc[n+]1C [YM-01, 2-((Z)-((E)-3-ethyl-5-(3-methylbenzo[d]thiazol-2(3H)-ylidene)-4-oxothiazolidin-2-ylidene)methyl)-1-methylpyridin-1-ium] |  |  |  |  | t1/2 [6]: approximately 4 minutes; kidney distribution ([7]; 0.16 and 1 hrs): prevalent in the kidney; brain penetration ([7]; 0.16 hrs): lacked detectable brain penetration; IC50 [8, 13]: 3200 ± 230 nM; enhancement of DnaK binding to denatured luciferase [9]: about 30%
5 | CCN1C(=O)/C(=C2\Sc3ccccc3N2C)SC1=S [YM-02, (E)-3-ethyl-5-(3-methylbenzo[d]thiazol-2(3H)-ylidene)-2-thioxothiazolidin-4-one] |  |  |  |  | IC50 [8]: > 50000 nM; activity in luciferase binding assay [9]: reduced activity; also recorded: some residual activity; anti-tau activity in cells [10]: some residual activity; anti-cancer activity [4]: residual activity
6 | CCn1c(=O)/c(=C2\Sc3c(cccc3C(F)(F)F)N2C)s/c1=C\c1cccc[n+]1Cc1ccccc1 | 21.1 ± 3.96 µM | 3.46 ± 0.39 µM | 2.31 ± 0.43 µM | 2.45 ± 0.26 µM | 
7 | (Z)-2-((3-ethyl-4-oxothiazolidin-2-ylidene)methyl)-1-methylpyridin-1-ium [YM-04] |  |  |  |  | affinity fold worse than YM-07 ([8]; ratio of ELISA IC50): about 2 fold; IC50 [8, 13]: ~15000 nM; activity in luciferase binding assay [9]: reduced activity
8 | CCn1c(=O)/c(=C2\Sc3ccc(OC)cc3N2C)s/c1=C\c1cccc[n+]1Cc1ccccc1 | 3.63 ± 0.32 µM | 1.43 ± 0.19 µM | 1.6 ± 0.36 µM | 1.74 ± 0.19 µM | 
9 | CCn1c(=O)/c(=C2\Sc3cc(Cl)ccc3N2C)s/c1=C\c1scc[n+]1Cc1ccccc1.[Cl-] [JG-98] |  |  |  |  | synergy ([11]; JG98:17DMAG 1:1): synergistic; combination index CI50 ([11]; JG98:17DMAG (10:1)): 1.09; combination index CI75 ([11]; JG98:17DMAG (10:1)): 0.35; combination index CI90 ([11]; JG98:17DMAG (10:1)): 0.27; combination index CI95 ([11]; JG98:17DMAG (10:1)): 0.2; synergy ([11]; JG98:bortezomib 100:1): synergistic; combination index CI50 ([11]; JG98:bortezomib (1:1)): 0.05; combination index CI75 ([11]; JG98:bortezomib (1:1)): 0.05; combination index CI90 ([11]; JG98:bortezomib (1:1)): < 0.02; combination index CI95 ([11]; JG98:bortezomib (1:1)): < 0.02
10 | CCN1C(=O)CS/C1=C\c1ccccn1 [YM-07, (Z)-3-ethyl-2-(pyridin-2-ylmethylene)thiazolidin-4-one] |  |  |  |  | IC50 [8]: ~5800 nM; affinity fold worse than YM-08 ([8]; ratio of ELISA IC50): about 10 fold; activity in luciferase binding assay [9]: reduced activity; anti-cancer activity [4]: residual activity
11 | CCn1c(=O)/c(=C2\Sc3ccccc3N2C)s/c1=C\c1cccc[n+]1Cc1ccccc1 | 3.29 ± 0.36 µM | 1.02 ± 0.2 µM | 1.49 ± 0.22 µM | 1.46 ± 0.15 µM | IC50 [12]: 14.6 ± 1.17 µM
12 | CCn1c(=O)/c(=C2\Sc3c(ccc(F)c3F)N2C)s/c1=C\c1cccc[n+]1Cc1ccccc1 | 6 ± 0.64 µM | 2.64 ± 0.35 µM | 2.1 ± 0.43 µM | 1.36 ± 0.16 µM | 
13 | CCn1c(=O)/c(=C2\Sc3cccc(F)c3N2C)s/c1=C\c1scc[n+]1Cc1ccccc1 [drawing 56] | 2.23 ± 0.28 µM | 0.4 ± 0.03 µM | 0.96 ± 0.2 µM | 1.07 ± 0.05 µM | IC50 [12]: 8.29 ± 0.66 µM
14 | CCn1c(=O)/c(=C2\Sc3c(Cl)cccc3N2C)s/c1=C\c1scc[n+]1Cc1ccccc1 | 3.93 ± 0.51 µM | 0.55 ± 0.05 µM | 1.05 ± 0.79 µM |  | IC50 [12]: > 30 µM
15 | CCn1c(=O)/c(=C2\Sc3ccccc3N2C)s/c1=C\c1ccc(F)c[n+]1C | 15 ± 0.98 µM | 7.82 ± 0.78 µM | > 30 µM | 5.34 ± 0.26 µM | 
16 | CCn1c(=O)/c(=C2\Sc3cccc(Cl)c3N2C)s/c1=C\c1scc[n+]1Cc1ccccc1 [drawing 57] | 1.87 ± 0.23 µM | 0.41 ± 0.02 µM | 0.83 ± 0.19 µM | 1.14 ± 0.15 µM | IC50 [12]: 6.96 ± 0.63 µM
17 | CCn1c(=O)/c(=C2\Sc3c(cccc3C(F)(F)F)N2C)s/c1=C\c1cccc[n+]1Cc1ccc(F)c(F)c1 | 8.47 ± 0.89 µM | 6.16 ± 1.33 µM | 5.35 ± 1.54 µM | 4.77 ± 0.48 µM | 
18 | CCn1c(=O)/c(=C2\Sc3cccc(F)c3N2C)s/c1=C\c1scc[n+]1Cc1ccccc1 [JG-83] |  |  |  |  | IC50 in combination versus Hsp70 inhibitor alone [1]: decreased IC50 concentrations
19 | CCn1c(=O)/c(=C2\Sc3cccc(Cl)c3N2C)s/c1=C\c1cccc[n+]1Cc1ccccc1 | 3.7 ± 0.35 µM | 0.72 ± 0.18 µM | 1.37 ± 0.27 µM | 0.61 ± 0.09 µM | IC50 [12]: 6.46 ± 0.7 µM
20 | CCn1c(=O)/c(=C2\Sc3ccccc3N2C)s/c1=C\c1cccc[n+]1Cc1ccc(F)c(F)c1 | 12.3 ± 1.21 µM | 4.4 ± 0.39 µM | 9.6 ± 2.98 µM | 3.06 ± 0.38 µM | 
21 | (E)-3-ethyl-5-(3-methylbenzo[d]thiazol-2(3H)-ylidene)-2-(methylthio)-4-oxo-4,5-dihydrothiazol-3-ium [YM-03] |  |  |  |  | activity in luciferase binding assay [9]: reduced activity
